Assay results as given in ChEMBL document CHEMBL5465560, “Selectivity Literature for EUbOPEN Chemogenomic Library” (2024).
Each block holds one compound with its values, some of them ahead of it.

How the values were obtained:
[1] = molecular target: Proto-oncogene tyrosine-protein kinase receptor Ret (Homo sapiens, UniProt P07949); assay: Selectivity interaction (KinaseProfiler screening (Millipore)) EUB0000601a RET; details: at 3 µM
[2] = molecular target: Serine/threonine-protein kinase/endoribonuclease IRE1 (Homo sapiens) (UniProt O75460); assay: Selectivity interaction (KinomeScan (DiscoverX)) EUB0001619a ERN1; details: at 1 µM
Chain of Serine/threonine-protein kinase/endoribonuclease IRE1 (Homo sapiens) (O75460 19-977 limits assumed): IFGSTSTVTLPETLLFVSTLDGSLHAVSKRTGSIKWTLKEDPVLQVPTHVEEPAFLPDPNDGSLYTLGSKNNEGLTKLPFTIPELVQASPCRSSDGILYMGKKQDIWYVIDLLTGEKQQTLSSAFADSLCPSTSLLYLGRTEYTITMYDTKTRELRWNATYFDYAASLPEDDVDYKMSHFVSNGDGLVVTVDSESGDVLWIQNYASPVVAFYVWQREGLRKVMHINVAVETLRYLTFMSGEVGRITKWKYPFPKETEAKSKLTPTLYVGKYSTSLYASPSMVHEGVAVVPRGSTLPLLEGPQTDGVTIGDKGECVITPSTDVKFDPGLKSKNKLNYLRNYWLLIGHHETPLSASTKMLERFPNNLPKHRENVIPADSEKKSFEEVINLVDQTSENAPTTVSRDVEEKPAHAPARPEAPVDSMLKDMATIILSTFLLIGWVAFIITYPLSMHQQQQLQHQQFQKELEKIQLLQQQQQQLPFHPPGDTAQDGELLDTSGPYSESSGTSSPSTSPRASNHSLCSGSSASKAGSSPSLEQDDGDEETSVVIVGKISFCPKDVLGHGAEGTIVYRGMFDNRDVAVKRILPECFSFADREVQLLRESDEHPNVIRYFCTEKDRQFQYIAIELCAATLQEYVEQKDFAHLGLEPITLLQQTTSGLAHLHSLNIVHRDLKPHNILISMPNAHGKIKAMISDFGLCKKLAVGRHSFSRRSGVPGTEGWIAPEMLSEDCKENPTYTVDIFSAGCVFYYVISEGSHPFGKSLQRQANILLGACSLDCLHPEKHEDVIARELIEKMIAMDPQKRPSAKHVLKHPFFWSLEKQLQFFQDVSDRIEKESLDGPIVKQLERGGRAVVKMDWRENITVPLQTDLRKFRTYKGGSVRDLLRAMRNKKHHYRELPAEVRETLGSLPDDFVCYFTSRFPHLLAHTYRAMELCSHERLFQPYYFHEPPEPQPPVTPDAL

[3] = molecular target: T1, Dual specificity mitogen-activated protein kinase kinase 6 (Homo sapiens) (UniProt P52564); assay: Selectivity interaction (KinomeScan (DiscoverX)) EUB0000045b MAP2K6
T1 sequence (whole entry): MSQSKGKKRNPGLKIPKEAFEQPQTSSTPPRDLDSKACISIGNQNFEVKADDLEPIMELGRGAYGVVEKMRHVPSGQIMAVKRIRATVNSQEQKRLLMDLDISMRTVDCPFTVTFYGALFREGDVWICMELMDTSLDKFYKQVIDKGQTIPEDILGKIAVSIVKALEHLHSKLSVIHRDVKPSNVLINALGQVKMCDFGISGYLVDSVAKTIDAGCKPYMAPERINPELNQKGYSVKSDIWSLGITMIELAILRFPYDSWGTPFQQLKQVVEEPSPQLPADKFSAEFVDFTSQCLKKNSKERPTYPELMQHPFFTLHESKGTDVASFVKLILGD

[4] = molecular target: Ribosomal protein S6 kinase beta-1 (Homo sapiens, UniProt P23443); assay: Selectivity interaction (ActivX KiNativ screen (kinase selectivity in THP-1 cell lysates)) EUB0000639a RPS6KB1; format: subcellular; details: lysate, at 0.2 µM
Chain of Ribosomal protein S6 kinase beta-1 (P23443 whole entry, looked up): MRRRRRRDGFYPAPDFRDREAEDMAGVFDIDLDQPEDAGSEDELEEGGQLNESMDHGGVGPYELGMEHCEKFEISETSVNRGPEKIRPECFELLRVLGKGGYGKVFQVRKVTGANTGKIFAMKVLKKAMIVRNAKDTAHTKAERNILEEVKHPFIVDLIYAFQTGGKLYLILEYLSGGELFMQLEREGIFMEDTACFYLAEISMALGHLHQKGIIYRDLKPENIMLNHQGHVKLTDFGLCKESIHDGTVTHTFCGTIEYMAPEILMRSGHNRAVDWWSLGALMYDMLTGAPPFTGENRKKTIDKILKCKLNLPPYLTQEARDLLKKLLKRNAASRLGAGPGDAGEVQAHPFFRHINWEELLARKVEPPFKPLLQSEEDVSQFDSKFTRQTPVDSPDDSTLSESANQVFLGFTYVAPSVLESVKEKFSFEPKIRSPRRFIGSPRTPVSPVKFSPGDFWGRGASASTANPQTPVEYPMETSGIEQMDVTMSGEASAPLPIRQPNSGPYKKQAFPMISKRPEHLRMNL

[5] = molecular target: T2, Ephrin type-B receptor 1 (Homo sapiens) (UniProt P54762); assay: Selectivity interaction (ProQinase) EUB0000171b EPHB1
T2 sequence (whole entry): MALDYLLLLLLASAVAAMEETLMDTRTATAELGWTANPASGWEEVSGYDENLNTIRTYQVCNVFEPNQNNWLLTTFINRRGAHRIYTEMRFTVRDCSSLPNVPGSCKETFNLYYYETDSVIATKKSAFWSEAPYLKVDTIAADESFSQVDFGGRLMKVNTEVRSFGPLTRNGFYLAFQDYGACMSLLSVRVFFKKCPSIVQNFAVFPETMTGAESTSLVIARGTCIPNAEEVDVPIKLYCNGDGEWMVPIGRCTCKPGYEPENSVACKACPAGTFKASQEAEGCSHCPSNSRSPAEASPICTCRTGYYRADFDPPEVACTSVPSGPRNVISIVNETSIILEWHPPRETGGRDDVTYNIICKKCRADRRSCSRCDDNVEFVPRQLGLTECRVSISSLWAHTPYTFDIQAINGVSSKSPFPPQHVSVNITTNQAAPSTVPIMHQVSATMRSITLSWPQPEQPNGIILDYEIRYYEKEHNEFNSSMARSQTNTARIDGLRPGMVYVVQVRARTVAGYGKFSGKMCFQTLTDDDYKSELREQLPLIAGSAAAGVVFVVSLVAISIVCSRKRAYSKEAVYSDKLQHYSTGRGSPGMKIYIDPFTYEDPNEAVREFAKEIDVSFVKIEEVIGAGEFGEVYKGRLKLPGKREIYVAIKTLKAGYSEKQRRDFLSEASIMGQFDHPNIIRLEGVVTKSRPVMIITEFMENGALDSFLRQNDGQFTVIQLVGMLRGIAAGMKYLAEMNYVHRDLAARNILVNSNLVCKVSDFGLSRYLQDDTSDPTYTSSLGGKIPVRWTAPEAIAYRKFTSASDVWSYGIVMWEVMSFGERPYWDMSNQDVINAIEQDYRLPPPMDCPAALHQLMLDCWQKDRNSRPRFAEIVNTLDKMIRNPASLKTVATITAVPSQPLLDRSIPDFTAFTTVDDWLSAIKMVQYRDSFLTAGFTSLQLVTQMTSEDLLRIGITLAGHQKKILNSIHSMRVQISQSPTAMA

[6] = molecular target: T3, Serine/threonine-protein kinase Sgk2 (Homo sapiens) (UniProt Q9HBY8); assay: Selectivity interaction (KinomeScan (DiscoverX)) EUB0001049a SGK2; details: at 1 µM
T3 sequence (whole entry): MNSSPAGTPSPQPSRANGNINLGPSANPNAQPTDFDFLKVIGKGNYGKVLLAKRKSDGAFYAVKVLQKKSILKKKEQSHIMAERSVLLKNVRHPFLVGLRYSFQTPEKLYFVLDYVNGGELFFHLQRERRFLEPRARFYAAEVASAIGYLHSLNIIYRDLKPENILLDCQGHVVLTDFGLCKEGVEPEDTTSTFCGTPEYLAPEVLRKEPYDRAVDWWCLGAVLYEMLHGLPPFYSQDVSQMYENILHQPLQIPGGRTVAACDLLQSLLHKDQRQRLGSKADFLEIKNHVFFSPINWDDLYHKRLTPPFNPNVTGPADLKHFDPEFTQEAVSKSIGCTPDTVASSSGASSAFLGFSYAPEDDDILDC

[7] = molecular target: Protein-tyrosine kinase 2-beta (Homo sapiens) (UniProt Q14289); assay: Selectivity interaction (KinomeScan (DiscoverX)) EUB0000666a PTK2B; details: at 10 µM
Chain of Protein-tyrosine kinase 2-beta (Homo sapiens) (Q14289 whole entry, looked up): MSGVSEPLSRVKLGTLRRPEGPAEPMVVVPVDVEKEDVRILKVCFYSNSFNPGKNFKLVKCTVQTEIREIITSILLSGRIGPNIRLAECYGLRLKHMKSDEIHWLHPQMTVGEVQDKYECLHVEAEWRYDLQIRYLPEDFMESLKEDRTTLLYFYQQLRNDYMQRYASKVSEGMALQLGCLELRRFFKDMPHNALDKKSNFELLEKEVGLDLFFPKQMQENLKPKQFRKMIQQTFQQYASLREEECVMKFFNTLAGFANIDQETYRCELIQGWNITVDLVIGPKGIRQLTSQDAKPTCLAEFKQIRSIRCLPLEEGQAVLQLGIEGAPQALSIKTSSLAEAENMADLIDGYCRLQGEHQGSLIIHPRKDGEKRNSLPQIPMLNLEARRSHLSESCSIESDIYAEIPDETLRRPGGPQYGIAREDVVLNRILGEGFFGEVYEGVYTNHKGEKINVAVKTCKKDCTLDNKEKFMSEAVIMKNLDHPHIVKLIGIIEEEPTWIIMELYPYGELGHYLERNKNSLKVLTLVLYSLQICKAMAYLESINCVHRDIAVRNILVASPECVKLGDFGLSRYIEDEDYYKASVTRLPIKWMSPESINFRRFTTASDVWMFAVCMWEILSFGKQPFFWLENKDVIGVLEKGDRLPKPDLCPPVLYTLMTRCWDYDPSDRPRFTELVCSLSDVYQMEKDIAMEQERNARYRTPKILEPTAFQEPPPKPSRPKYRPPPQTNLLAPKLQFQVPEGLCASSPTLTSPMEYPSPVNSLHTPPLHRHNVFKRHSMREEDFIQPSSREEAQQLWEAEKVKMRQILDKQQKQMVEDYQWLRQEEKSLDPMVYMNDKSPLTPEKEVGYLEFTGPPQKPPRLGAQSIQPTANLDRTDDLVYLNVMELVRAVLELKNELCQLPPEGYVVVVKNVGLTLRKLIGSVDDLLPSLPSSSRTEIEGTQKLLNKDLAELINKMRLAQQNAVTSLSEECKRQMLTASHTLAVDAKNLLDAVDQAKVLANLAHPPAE

[8] = molecular target: T4, Serine/threonine-protein kinase DCLK1 (Homo sapiens) (UniProt O15075); assay: Selectivity interaction (Kinase panel (Z-LYTE Assay)) EUB0001632a DCLK1; details: at 10 µM
T4 sequence (whole entry): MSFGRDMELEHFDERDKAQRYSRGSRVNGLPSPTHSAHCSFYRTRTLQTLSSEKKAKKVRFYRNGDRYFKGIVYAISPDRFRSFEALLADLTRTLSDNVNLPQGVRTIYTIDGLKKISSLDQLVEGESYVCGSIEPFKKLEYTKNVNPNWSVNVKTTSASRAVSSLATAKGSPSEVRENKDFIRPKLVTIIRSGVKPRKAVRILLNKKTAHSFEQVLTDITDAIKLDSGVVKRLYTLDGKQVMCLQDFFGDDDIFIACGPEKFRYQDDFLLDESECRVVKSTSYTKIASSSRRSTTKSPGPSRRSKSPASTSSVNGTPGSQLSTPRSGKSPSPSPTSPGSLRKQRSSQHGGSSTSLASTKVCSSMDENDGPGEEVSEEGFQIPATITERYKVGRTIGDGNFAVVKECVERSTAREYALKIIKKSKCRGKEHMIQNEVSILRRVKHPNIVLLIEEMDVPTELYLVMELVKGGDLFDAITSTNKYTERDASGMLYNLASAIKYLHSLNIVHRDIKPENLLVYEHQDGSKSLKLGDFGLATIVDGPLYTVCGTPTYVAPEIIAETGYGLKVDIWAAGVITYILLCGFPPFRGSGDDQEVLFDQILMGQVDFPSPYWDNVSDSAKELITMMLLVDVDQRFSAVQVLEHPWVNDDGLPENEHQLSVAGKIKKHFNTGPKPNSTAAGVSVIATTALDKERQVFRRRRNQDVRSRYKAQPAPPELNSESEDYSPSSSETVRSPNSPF

[9] = molecular target: SRSF protein kinase 3 (Homo sapiens) (UniProt Q9UPE1); assay: Selectivity interaction (Kinase panel (Z-LYTE Assay)) EUB0001632a SRPK3; details: at 10 µM
Chain of SRSF protein kinase 3 (Homo sapiens) (Q9UPE1 whole entry): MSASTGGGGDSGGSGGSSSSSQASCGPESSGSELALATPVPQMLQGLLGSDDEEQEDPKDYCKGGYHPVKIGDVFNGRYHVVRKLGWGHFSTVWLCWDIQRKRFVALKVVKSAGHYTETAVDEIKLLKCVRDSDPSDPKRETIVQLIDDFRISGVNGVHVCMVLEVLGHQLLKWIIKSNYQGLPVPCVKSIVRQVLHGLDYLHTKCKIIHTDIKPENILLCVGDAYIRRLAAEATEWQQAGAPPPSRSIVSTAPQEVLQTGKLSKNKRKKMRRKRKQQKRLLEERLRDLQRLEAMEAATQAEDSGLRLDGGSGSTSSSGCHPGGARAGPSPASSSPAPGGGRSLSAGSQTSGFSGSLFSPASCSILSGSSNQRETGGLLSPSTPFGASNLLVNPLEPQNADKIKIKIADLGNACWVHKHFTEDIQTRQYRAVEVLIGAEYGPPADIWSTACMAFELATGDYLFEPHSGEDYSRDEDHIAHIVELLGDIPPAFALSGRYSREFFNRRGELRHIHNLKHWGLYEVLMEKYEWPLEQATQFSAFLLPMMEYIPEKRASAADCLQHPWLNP

Chain of Proto-oncogene tyrosine-protein kinase receptor Ret (P07949 whole entry): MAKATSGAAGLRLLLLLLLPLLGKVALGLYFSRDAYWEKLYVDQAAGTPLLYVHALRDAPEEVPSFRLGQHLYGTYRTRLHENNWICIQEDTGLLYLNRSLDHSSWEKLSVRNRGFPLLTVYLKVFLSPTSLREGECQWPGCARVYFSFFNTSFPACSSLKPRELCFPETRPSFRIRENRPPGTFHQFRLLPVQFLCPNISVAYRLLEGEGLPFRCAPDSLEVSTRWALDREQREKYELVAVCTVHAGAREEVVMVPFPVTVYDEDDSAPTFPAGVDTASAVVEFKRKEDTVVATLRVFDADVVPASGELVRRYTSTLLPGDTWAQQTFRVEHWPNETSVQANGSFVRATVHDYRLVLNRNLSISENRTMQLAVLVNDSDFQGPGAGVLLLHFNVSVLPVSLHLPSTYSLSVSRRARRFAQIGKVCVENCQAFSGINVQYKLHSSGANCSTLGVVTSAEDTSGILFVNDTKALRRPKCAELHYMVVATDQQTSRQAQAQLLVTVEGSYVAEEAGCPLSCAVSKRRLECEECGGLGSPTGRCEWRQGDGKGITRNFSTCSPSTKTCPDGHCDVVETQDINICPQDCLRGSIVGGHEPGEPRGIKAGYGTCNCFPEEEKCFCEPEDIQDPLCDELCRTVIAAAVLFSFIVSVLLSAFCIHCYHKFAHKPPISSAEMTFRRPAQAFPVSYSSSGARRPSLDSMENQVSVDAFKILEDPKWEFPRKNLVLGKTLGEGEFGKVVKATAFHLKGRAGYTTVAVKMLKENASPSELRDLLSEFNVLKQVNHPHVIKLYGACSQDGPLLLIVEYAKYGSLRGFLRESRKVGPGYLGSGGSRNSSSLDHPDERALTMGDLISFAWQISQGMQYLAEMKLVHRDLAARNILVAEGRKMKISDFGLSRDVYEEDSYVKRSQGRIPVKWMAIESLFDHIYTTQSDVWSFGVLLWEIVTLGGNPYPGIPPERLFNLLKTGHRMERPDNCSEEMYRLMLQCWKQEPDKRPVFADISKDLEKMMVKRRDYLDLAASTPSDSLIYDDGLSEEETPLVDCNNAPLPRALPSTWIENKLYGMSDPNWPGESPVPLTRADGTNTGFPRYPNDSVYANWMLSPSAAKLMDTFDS

SMILES: N#Cc1cccc(-c2c[nH]c3ncnc(N4CCOCC4)c23)c1
% of control [2]: 74%

SMILES: C=CC(=O)Nc1cc(-n2c(=O)ccc3cnc4ccc(-c5ccc(NS(C)(=O)=O)cc5)cc4c32)ccc1C
% of control ([3]; at 1 µM): 100%
% of control ([3]; at 10 µM): 70%

SMILES: COc1cc(Nc2nc(C)cc(-c3cnn4nc(OC)ccc34)n2)cc(C(F)(F)F)c1
% of control [6]: 78%

SMILES: O=C(NOC[C@H](O)CO)c1ccc(F)c(F)c1Nc1ccc(I)cc1F
% of control [7]: 98%

Further lines, results first:

% of inhibition [1]: 52%
SMILES: CCc1cc(Nc2nccc(-c3c(-c4ccc(OC)c(C(=O)Nc5c(F)cccc5F)c4)nc4ccccn34)n2)c(OC)cc1N1CCC(N2CCN(S(C)(=O)=O)CC2)CC1

% of inhibition [4]: -6.2%
SMILES: CC[C@@H]1[C@H](F)C(=O)N[C@@H]1COc1nccc2cc(C(N)=O)c(OC)cc12 [ZIMLOVISERTIB]

% of control ([5]; at 1 µM): 83%
% of control ([5]; at 5 µM): 82%
SMILES: C=CC(=O)Nc1cccc(C(=O)Nc2ccc(Nc3cc(-c4[nH]c(SC)nc4C)ccn3)cc2)c1

% of control [8]: -1.19%
% of control [9]: -1.05%
SMILES: Cn1cc(-n2cnc3c(NCc4nc5cc(Cl)c(Cl)cc5[nH]4)nc(N4CCOCC4)nc32)cn1
